Source: ChEMBL document CHEMBL3797144, “2,8-Diazaspiro[4.5]decan-8-yl)pyrimidin-4-amine potent CCR4 antagonists capable of inducing receptor endocytosis” (Eur J Med Chem, 2016)
Values after ≈ are worked out from the molar mass of the structure shown.

Experiments:
[1] = biological target: T1, C-C chemokine receptor type 4 (Homo sapiens, UniProt P51679); assay: (§1) Induction of CCR4 internalisation in human HUT78 cells after 30 mins by flow cytometry; assay type: functional, cell-based
T1 sequence (P51679 whole entry): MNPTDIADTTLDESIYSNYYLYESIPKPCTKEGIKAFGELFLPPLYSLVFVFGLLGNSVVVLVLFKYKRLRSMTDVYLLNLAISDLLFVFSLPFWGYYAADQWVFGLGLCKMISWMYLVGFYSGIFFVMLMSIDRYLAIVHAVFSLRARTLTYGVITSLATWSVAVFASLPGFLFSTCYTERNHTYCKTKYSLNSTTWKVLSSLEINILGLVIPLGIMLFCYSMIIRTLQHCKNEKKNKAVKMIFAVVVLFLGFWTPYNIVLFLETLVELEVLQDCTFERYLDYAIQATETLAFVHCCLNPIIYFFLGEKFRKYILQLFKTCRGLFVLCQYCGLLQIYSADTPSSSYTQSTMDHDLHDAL

[2] = Kinetic solubility of the compound by chemiluminescent nitrogen detection assay; assay type: physicochemical; details: read-out: Kinetic_solubility
[3] = biological target: T2, C-C chemokine receptor type 4 (Homo sapiens) (UniProt P51679); assay: as §1; assay type: functional, cell-based
T2 sequence (whole entry): T1 sequence (P51679 whole entry)

[4] = biological target: T1, C-C chemokine receptor type 4; assay: Displacement of [125I]-TARC from human recombinant CCR4 expressed in CHO cell membranes by scintillation counting method
[5] = biological target: T1, C-C chemokine receptor type 4; assay: Antagonist activity at human CCR4 expressed in CHO cells by [35S]GTPgammaS assay; assay type: functional, cell-based
[6] = biological target: T1, C-C chemokine receptor type 4; assay: Antagonist activity at CCR4 in human PBMC assessed as inhibition of actin polymerization by flow cytometry; details: read-out: pA2 (converted)
[7] = Clearance in rat at 1 mg/kg; assay type: ADME, organism-based; details: in vivo
[8] = Plasma protein binding in human; assay type: ADME, cell-free; details: read-out: PPB (converted)
[9] = Volume of distribution in rat at 1 mg/kg; assay type: ADME, organism-based; details: in vivo
[10] = test system: Rattus norvegicus; assay: Clearance in rat at 1 mg/kg relative to liver blood flow; assay type: ADME, organism-based; details: in vivo
[11] = Half life in rat at 1 mg/kg; assay type: ADME, organism-based; details: in vivo
[12] = biological target: T2, C-C chemokine receptor type 4 (Homo sapiens); assay: Induction of CCR4 internalisation in human HUT78 cells at 10 nM after 30 mins by flow cytometry; assay type: functional, cell-based

Structure (SMILES) | solubility kinetic [2] [µg/mL] | Ki [4] [nM] | other results
COc1cc2nc(N3CCC(N(C)C(=O)[C@H]4CCCN4)CC3)nc(Nc3ccc(Cl)cc3F)c2cc1OC | – | – | EC50 [1]: 398 nM
Clc1ccc(CNc2ccnc(N3CCC4(CCN(C[C@@H]5CCCN5)C4)CC3)n2)c(Cl)c1 | 56 (≈ 118 µM) | 3.98 | EC50 [1]: 12.6 nM; Activity [3]: 56%
CN(Cc1ccc(Cl)cc1Cl)c1ccnc(N2CCC3(CCN(C(=O)C4CCCN4)C3)CC2)n1 (racemic) | 190 (≈ 377 µM) | 25.1 | –
O=C(c1ccccn1)N1CCC2(CCN(c3nccc(NCc4ccc(Cl)cc4Cl)n3)CC2)C1 | 17 (≈ 34.2 µM) | 100 | –
CN(Cc1ccc(Cl)cc1Cl)c1ccnc(N2CCC3(CCN(CC4CCCN4)C3)CC2)n1 (racemic) | 141 (≈ 288 µM) | 1 | EC50 [1]: 158 nM; Activity [3]: 74%; Kb [6]: 1000 nM; IC50 [5]: 7.94 nM
O=C(C1CCNC1)N1CCC2(CCN(c3nccc(NCc4ccc(Cl)cc4Cl)n3)CC2)C1.O=C(O)C(F)(F)F (racemic) | 339 | 50.1 | –
O=C(C1CCCCC1)N1CCC2(CCN(c3nccc(NCc4ccc(Cl)cc4Cl)n3)CC2)C1 | 3 (≈ 5.97 µM) | 631 | –
Clc1ccc(CNc2ccnc(N3CCC4(CCN(CC5CCCCN5)C4)CC3)n2)c(Cl)c1 (racemic) | 182 (≈ 372 µM) | 2.51 | –
C[N+]1(C2CCN(c3ncc(-c4ccc(F)cc4F)c(NCc4ccc(F)cc4F)n3)CC2)CCCCC1 | – | – | Activity [12]: 50%
O=C([C@H]1CCCCN1)N1CCN(c2nccc(NCc3ccc(Cl)cc3Cl)n2)CC1 | 140 (≈ 312 µM) | 2.51 | Kb [6]: 174 nM; IC50 [5]: 7.94 nM

Further lines, with some results ahead:

solubility kinetic [2] [µg/mL] | Ki [4] [nM] | Structure (SMILES) | other results
165 (≈ 337 µM) | 100 | O=C([C@@H]1CCCN1)N1CCC2(CCN(c3nccc(NCc4ccc(Cl)cc4Cl)n3)CC2)C1 | –
144 | 316 | Cl.Cl.Clc1ccc(CNc2ccnc(N3CCC4(CCNC4)CC3)n2)c(Cl)c1 | –
172 (≈ 342 µM) | 25.1 | O=C([C@H]1CCCCN1)N1CCC2(CCN(c3nccc(NCc4ccc(Cl)cc4Cl)n3)CC2)C1 | –
170 (≈ 338 µM) | 20 | O=C([C@@H]1CCCCN1)N1CCC2(CCN(c3nccc(NCc4ccc(Cl)cc4Cl)n3)CC2)C1 | –
233 (≈ 461 µM) | – | O=C(C1COCCN1)N1CCC2(CCN(c3nccc(NCc4ccc(Cl)cc4Cl)n3)CC2)C1 (racemic) | –
186 (≈ 369 µM) | 50.1 | O=C(C1CCCNC1)N1CCC2(CCN(c3nccc(NCc4ccc(Cl)cc4Cl)n3)CC2)C1 (racemic) | –
160 (≈ 362 µM) | 3.16 | Fc1ccc(CNc2ccnc(N3CCC4(CCN(CC5CCCN5)C4)CC3)n2)c(F)c1 (racemic) | EC50 [1]: 15.8 nM; Activity [3]: 62%; IC50 [5]: 7.94 nM
79 (≈ 161 µM) | 25.1 | O=C(C1CCCN1)N1CCC2(CCN(c3nccc(NCc4ccc(Cl)cc4Cl)n3)CC2)C1 (racemic) | –
175 (≈ 383 µM) | 25.1 | O=C(C1CCCN1)N1CCC2(CCN(c3nccc(NCc4ccc(F)cc4F)n3)CC2)C1 (racemic) | –
180 (≈ 368 µM) | 15.8 | O=C([C@H]1CCCN1)N1CCC2(CCN(c3nccc(NCc4ccc(Cl)cc4Cl)n3)CC2)C1 | –
138 | 126 | CNCC(=O)N1CCC2(CCN(c3nccc(NCc4ccc(Cl)cc4Cl)n3)CC2)C1.O=C(O)C(F)(F)F.O=C(O)C(F)(F)F | –
16 (≈ 33.7 µM) | 5.01 | Clc1ccc(CNc2ccnc(N3CCC4(CCN(C[C@H]5CCCN5)C4)CC3)n2)c(Cl)c1 | EC50 [1]: 6.31 nM; Activity [3]: 64%
270 (≈ 568 µM) | 1.58 | Clc1ccc(CNc2ccnc(N3CCC4(CCN(CC5CCCN5)C4)CC3)n2)c(Cl)c1 (racemic) | clearance [7]: 15 mL/min/kg; Kb [6]: 200 nM; fraction unbound [8]: 0.068; Vd [9]: 5 L/kg; IC50 [5]: 7.94 nM; CL [10]: 18%; half-life [11]: 4 h
